“And” between values parts separate entries of the source, which are not always exact repeats. Identical values can stand only once. “Also recorded” adds a separate entry of the source. Like-named read-outs stand apart in the source and are kept apart here. Marks after values point to notes of the source that are not given here. One block for each molecule: values may come before it.
Tests used:
[1] = tested on: 16S ribosomal RNA fragment; experiment: Relative solution affinities of ligand:16S complexes; format: binding, bacterial; conditions: normalized to the solution affinity of 4-aminobenzamidine
[2] = tested on: 27-mer fragment of ribosomal RNA comprising the 16S A-site; experiment: Mode of binding of ligand pairs by ESI-MS (presence or absence of ternary complex); parameters: species or system bacterial; conditions: for binding interaction of ligand pair Ibis-326732 / glucosamine on 16S RNA: 70 μM Ibis-326732, 100 μM glucosamine, 5 μM 16S RNA; for binding interaction of ligand pair 2-DOS / 2,4-diaminopyrimidine on 16S RNA: no ternary complex signal; for binding interaction of ligand pair 2-DOS / 3,5-DT on 16S RNA: 5 μM 16S, 100 μM 2-DOS, 0.5 mM 3,5-DT
Text: Ligands bind competitively for a target when the binding of one ligand prevents the binding of the other ligand is the result of the ligands binding to the target at the same location. In this situation, the mixture contains an equilibrium of two binary complexes, one of which being one ligand bound to the target and the other being the other ligand bound to the target. The ligand having the greater affinity for the target will predominate and thus have higher signal intensity for its binary complex with the target compared to the other ligand. Competitive binding interaction between two ligands is determined according to methods of the invention by analyzing the mixture by mass-spectrometry to detect the presence or lack of signal corresponding to a ternary complex where both ligands are bound to the target at the same time. The lack of signal for a ternary complex indicates a competitive binding interaction between the two ligands while the presence of the signal indicates a non-competitive interaction.
Accordingly, in an aspect of the present invention, there is provided a method for determining the relative interaction between at least two ligands with respect to a target substrate. In practicing this method an amount of each of the ligands is mixed with an amount of the target substrate to form a mixture. This mixture is analyzed by mass spectrometry to determine the presence or absence of a ternary complex corresponding to the simultaneous adduction of two of the ligands with the target substrate.
Ligands bind concurrently when the binding of one ligand to the target is unaffected by the binding of the other and is a consequence of the ligands binding to the target at distinct sites. […] The ligand having the greater affinity for the target will have higher signal intensity for its binary complex with the target compared to the other ligand. […] Particularly, the absolute ion abundance of the ternary complex (TL1L2) is compared to the relative ion abundance of the binary complexes (TL1 and TL2) which contribute to the formation of the ternary complex with respect to the unbound target (TL1×TL2/T). Since there are two binary complexes contributing the formation of the ternary complex, the comparison is with the sum of the two contributing binary complexes i.e. TL1×TL2/T+TL2×TL1/T. If the absolute ion abundance of the ternary complex is equal to the sum of the relative ion abundance of the contributing binary complexes, then the two ligands concurrently bind to the target substrate. Expressed another way, a pair of ligands are concurrent binders for a target if in either of the following equivalent formulae the value of y is equal to zero: […]
In the compound collection used in Example 1, those compounds that formed complexes with the RNA target are pooled into groups of 4-10 and screened again as a mixture against the RNA target as outlined in Example 1. Since all of the compounds have been shown previously to bind to the RNA, three possible changes in the relative ion abundance are observed in the mass spectrometry assay. If two compounds bind at the same site, the ion abundance of the RNA complex for the weaker binder will be decreased through competition for RNA binding with the higher affinity binder (competitive binding). An example is presented in FIG. 3, where the ion abundance from a glucosamine-RNA complex is reduced as glucosamine is displaced from the RNA by addition of a benzimidazole compound. If two compounds can bind at distinct sites, signals will be observed from the respective binary complexes with the RNA and from the ternary complex where both compounds bind to the RNA simultaneously (concurrent binders). […] The relative ion abundance from the […] for 3,5-DT to the free RNA is measured, as is the relative ion abundance from the ternary complex between 3,5-DT, 2-DOS, and RNA and the binary complex. […]

[3] = tested on: 27 nucleotide fragment of bacterial 16S ribosomal RNA incorporating the A-site; experiment: ESI-FT-ICR MS detection of non-covalent ligand:16S RNA complexes (ion abundance relative to unbound RNA); format: binding; conditions: for affinity for 16S (order of magnitude): ESI-MS assay; for ion abundance of binary ligand:16S complex relative to unbound 16S RNA: 200 μM ligand, 5 μM target 16S RNA fragment
Method: In separate mixtures, 200 μM of three ligands IBIS-326611 ((2S)-2-amino-3-hydroxy-1-piperazinylpropan-1-one), IBIS-326645 (5-methyl-1-(2-oxo-2-piperazinylethyl)-1,3-dihydropyrimidine-2,4-dione) and a concatenated compound thereof, IBIS-271583 (1-{2-[(3R)-4-(2S)-2-amino-3-hydroxypropanoyl)-3-methylpiperazinyl]-2-oxoethyl}-5-methyl-1,3-dihydropyrimidine-2,4-dione) are each mixed with 5 μM of target 16S RNA fragment and analyzed by mass spectrometry. IBIS-326611 is shown in FIG. 5 to form a binary complex having an ion abundance 27.8% that of the unbound 16S RNA while IBIS-326645 in FIG. 6 forms a binary complex having an ion abundance 14.7% that of the unbound 16S RNA.
All MS experiments were performed by using an Apex II 70e ESI-FT-ICR MS (Bruker Daltonics, Billerica, Mass.) with an actively shielded 7 tesla superconducting magnet. RNA solutions were prepared in 50 mM NH4OAc (pH 7), mixed with 10% isopropanol to aid desolvation, and infused at a rate of 1.5 μL/min by using a syringe pump. Ions were formed in a modified electrospray source (Analytica, Branford, Conn.) by using an off-axis grounded electrospray probe positioned ca. 1.5 cm from the metallized terminus of the glass desolvation capillary biased at 5,000 V. A countercurrent flow of dry […] gas heated to 150° C. was used to assist in the desolvation process. Ions were accumulated in an external ion reservoir comprised of a radio frequency-only hexapole, a skimmer cone, and an auxiliary electrode for 1,000 ms before transfer into the trapped ion cell for mass analysis. Each spectrum was the result of the co-addition of 64 transients comprised of 524,288 data points acquired over a […] bandwidth, resulting in a 1.2-sec detection interval. All aspects of pulse sequence control, data acquisition, and postacquisition processing were performed by using a Bruker Daltonics data station running XMASS Version 4.0 on a Silicon Graphics (Mountain View, Calif.) R5000 computer.
RNA binding ligands are selected from a set of compounds using mass spectrometry. The RNA used for the target molecule is an RNA whose electrospray ionization properties have been optimized in conjunction with optimization of the electrospray ionization and desolvation conditions. […] A 50 μM stock solution of the RNA is purified, and dialyzed to remove sodium and potassium ions.
The compound set is pooled into mixtures of 8 members, each present at 1-10 mM in […]. A collection of these mixtures is diluted 1:50 into an aqueous solution containing 50-150 mM ammonium acetate buffer at pH 7.0, 1-5 μM RNA target, and 10-50% isopropanol, ethanol, or methanol to create the screening sample. The aqueous solution contains 100 μM each of 8 compounds, 50 mM ammonium acetate, 5 μM RNA target, and 25% isopropanol. These screening samples are arrayed in a 96-well microtiter plate, or added to individual vials for queuing into an automated robotic liquid hander under computer control by the mass spectrometer.
The source voltage potentials are adjusted to give stable electrospray ionization by monitoring the ion abundance of the free RNA. […] If available on the mass spectrometers, the partial gas pressure beyond the desolvation capillary is adjusted by throttling the pumping speed. This gas pressure may also be altered to optimize the ion abundance and observation of the ammonium ion adducts. After instrument performance has been optimized, the voltage potential between the capillary and skimmer lens is increased to reduce the abundance of the ion from the monoammonium-RNA complex to […] of the abundance of the ion from the RNA. These instrument parameters are used for detection of complexes between the RNA and compound set.
The compound set is screened for members that form non-covalent complexes with the RNA. […]

[4] = target: 16S ribosomal RNA fragment (27mer RNA, SEQ ID NO:1); experiment: ESI-MS titration of 2-DOS against 16S, polynomial fit for dissociation constants; format: binding, bacterial; conditions: 4th order polynomial fit, 100 mM ammonium acetate buffer
Method: 2′-O-ACE protected 27mer RNA ([…]; SEQ ID NO:1) was purchased from Dharmacon Research (Boulder, Colo.). Aqueous solutions were deprotected for 30 min at 60° C. in a 0.1M tetramethylenediamine acetate buffer at pH 3.5. […] All chemicals were purchased from Aldrich Chemicals (Milwaukee), except for 2-deoxystreptamine and 3,5-diamino-1-N-methyl-triazole, which were prepared according to Georgiadis et al (J. Carbohydr. Chem. 1991, 10, 739-748) and Kaiser et al (U.S. Pat. No. 2,648,670). Ligands were added to the indicated final concentrations from 20 mM aqueous solutions.
Identical sample preparations were used for experiments with FTICR mass spectrometer. […] Sample was introduced at 1.0 μL/min and the capillary interface unheated. Ions were stored for 1.25 sec in a hexapole ion guide prior to transfer to the trapped ion cell. The indicated gas pressure over the vacuum pump situated below the hexapole ion guide was ˜8×10^−6 mbar. The parallel measurements of relative activation energy were performed with the FTICR mass spectrometer by varying the potential difference between the capillary exit and the first skimmer lens element. Typically, 32 1.2 sec transients of 512 k data points were summed prior to Fourier transformation and display.
2-deoxystreptamine (2-DOS) bound to 16S at multiple locations as a function of increasing concentration. At 0.33 mM, one 2-DOS bound 16S, generating an [M-5H^+]^5− complex observed at m/z 1758.9. Complexes corresponding to three and four 2-DOS molecules bound concurrently to 16S appeared at concentrations above 3.3 mM. Knowledge of the binding stoichiometry lead to the use of a fourth-order polynomial for calculation of the respective dissociation constants (KD) (Greig et al., J. Am. Chem. Soc. 1995, 117, 10765-10766).

binding interaction of ligand pair Ibis-326732 / glucosamine on 16S RNA [2]: competitive binders
Molecule: N[C@H]1C(O)O[C@H](CO)[C@@H](O)[C@@H]1O (stereo partly drawn) [GA, glucosamine]
Relative Soln. Affinity [1]: lower than GBI | Relative Soln. Affinity ([1]; listed as Glucosamine): .86 + 0.03

Molecule: Nc1cccc2nc(C3CCNCC3)[nH]c12 [Ibis-326732, 4-amino-2-piperidin-4-ylbenzimidazole]
affinity for 16S RNA compared with another ligand (ion abundance of binary complexes) [3]: greater affinity than glucosamine | binding interaction of ligand pair Ibis-326732 / glucosamine on 16S RNA [2]: competitive binders

Molecule: NC(=O)c1[nH]cnc1N [AICA, 4-aminoimidazole-5-carboxamide]
Relative Soln. Affinity [1]: .26 + 0.04

Molecule: Nc1ccnc(N)n1 [DAP, 2,4-diaminopyrimidine]
affinity for 16S (order of magnitude) [3]: ˜mM affinities | Relative Soln. Affinity [1]: .17 + 0.04 | binding interaction of ligand pair 2-DOS / 2,4-diaminopyrimidine on 16S RNA [2]: preferred sites overlap and 2-DOS displaces DAP for binding

Molecule: NN1CN(SCc2ccccc2)C=N1 [2-amino-4-benzylthio-1,2,4-triazole]
complex with RNA target observed by ESI-MS [3]: seen

Molecule: Nc1n[nH]c(N)n1 [3,5-DT, 3,5-diamino-1,2,4-triazole]
affinity for 16S (order of magnitude) [3]: ˜mM affinities | binding interaction of ligand pair 2-DOS / 3,5-DT on 16S RNA [2]: cooperative binding; also recorded: concurrent binding | binding interaction of ligand pair 2-DOS / 3,5-DT on 16S RNA ([2]; listed as DT): concurrent binding interaction

Molecule: N=C(N)c1ccc(N)cc1 [ABA, 4-aminobenzamidine]
Relative Soln. Affinity [1]: 1.00^b

Molecule: Cn1nc(N)nc1N [3,5-diamino-1-N-methyltriazole]
complex with RNA target observed by ESI-MS [3]: not observed

Molecule: N[C@@H]1C[C@H](N)[C@@H](O)C(O)[C@H]1O (stereo partly drawn) [2-DOS, 2-deoxystreptamine]
affinity for 16S RNA compared with another ligand (ion abundance of binary complexes) [3]: greater binding affinity for the target RNA than DT | Kd ([4]; read-out: KD of 2-DOS:16S complex (first 2-DOS)): 610 µM and 600 µM | Kd ([4]; read-out: KD of (2-DOS)2:16S complex (second 2-DOS)): 1400 ± 100 µM | Kd ([4]; read-out: KD of (2-DOS)3:16S complex (third 2-DOS)): 4000 ± 1000 µM | binding interaction of ligand pair 2-DOS / 3,5-DT on 16S RNA [2]: concurrent binding interaction; also recorded: cooperative binding | binding interaction of ligand pair 2-DOS / 2,4-diaminopyrimidine on 16S RNA [2]: preferred sites overlap and 2-DOS displaces DAP for binding

Molecule: 1-{2-[(3R)-4-(2S)-2-amino-3-hydroxypropanoyl)-3-methylpiperazinyl]-2-oxoethyl}-5-methyl-1,3-dihydropyrimidine-2,4-dione [IBIS-271583]
affinity for 16S RNA compared with another ligand (ion abundance of binary complexes) [3]: greater affinity for 16S than either parent compound | ion abundance of binary ligand:16S complex relative to unbound 16S RNA [3]: 14.7% | ion abundance of binary ligand:16S complex relative to unbound 16S RNA ([3]; listed as IBIS-271483): 52.4% | affinity for 16S RNA compared with another ligand (ion abundance of binary complexes) ([3]; listed as IBIS-271483): greater affinity for the target 16S RNA than either of the parent compounds

Molecule: N[C@@H](CO)C(=O)N1CCNCC1 [IBIS-326611, (2S)-2-amino-3-hydroxy-1-piperazinylpropan-1-one]
ion abundance of binary ligand:16S complex relative to unbound 16S RNA [3]: 27.8%

Molecule: N=C(N)Nc1nc2ccccc2[nH]1 [GBI, 2-guanidylbenzimidazole]
Relative Soln. Affinity [1]: .99 + 0.02

From patent US8188011B1, “Optimization of ligand affinity for RNA targets using mass spectrometry” (Isis Pharmaceuticals, Inc., priority 2000, dated 2012)
